Data: PubChem BioAssay (NCI)
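Here, GI50 denotes the concentration required for 50% inhibition of growth. At the TGI there is no net growth.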

Experiments:
Assay in all cases: DTP human tumour cell line panel, 384-well format
[1] = system: 786-0 renal
[2] = system: A498 renal
[3] = system: A549 NSCLC
[4] = system: ACHN renal
[5] = system: BT-549 breast
[6] = system: CAKI-1 renal
[7] = system: CCRF-CEM leukemia
[8] = system: COLO 205 colon
[9] = system: DU-145 prostate
[10] = system: EKVX NSCLC
[11] = system: HCC-2998 colon
[12] = system: HCT-116 colon
[13] = system: HCT-15 colon
[14] = system: HL-60(TB) leukemia
[15] = system: HOP-62 NSCLC
[16] = system: HOP-92 NSCLC
[17] = system: HS 578T breast
[18] = system: HT29 colon
[19] = system: IGROV1 ovarian
[20] = system: K-562 leukemia
[21] = system: KM12 colon
[22] = system: M14 melanoma
[23] = system: MALME-3M melanoma
[24] = system: MCF7 breast
[25] = system: MDA-MB-231 breast
[26] = system: MDA-MB-435 melanoma
[27] = system: MDA-MB-468 breast
[28] = system: MOLT-4 leukemia
[29] = system: NCI-H226 lung
[30] = system: NCI-H23 lung
[31] = system: NCI-H322M lung
[32] = system: NCI-H460 NSCLC
[33] = system: NCI-H522 lung
[34] = system: NCI/ADR-RES ovarian
[35] = system: OVCAR-3 ovarian
[36] = system: OVCAR-4 ovarian
[37] = system: OVCAR-5 ovarian
[38] = system: OVCAR-8 ovarian
[39] = system: PC-3 prostate
[40] = system: RPMI-8226 leukemia
[41] = system: RXF 393 renal
[42] = system: SF-268 CNS
[43] = system: SF-295 CNS
[44] = system: SF-539 CNS
[45] = system: SK-MEL-2 melanoma
[46] = system: SK-MEL-28 melanoma
[47] = system: SK-MEL-5 melanoma
[48] = system: SK-OV-3 ovarian
[49] = system: SN12C renal
[50] = system: SNB-19 CNS
[51] = system: SNB-75 CNS
[52] = system: SR leukemia
[53] = system: SW-620 colon
[54] = system: T-47D breast
[55] = system: TK-10 renal
[56] = system: U251 glioblastoma
[57] = system: UACC-257 melanoma
[58] = system: UACC-62 melanoma

## CCn1c(=O)c(-c2ccn[nH]2)cc2c(C)nc(N)nc21
[1]
  GI50: 2910 nM
  TGI: 15700 nM
[2]
  GI50: 384 nM
  TGI: 1970 nM
[3]
  GI50: 2270 nM
  TGI: 9940 nM
[4]
  GI50: 2000 nM
  TGI: 8330 nM
[5]
  GI50: 330 nM
  TGI: 2760 nM
[6]
  GI50: 663 nM
  TGI: 3780 nM
[7]
  GI50: 434 nM
  TGI: 2540 nM
[8]
  GI50: 2240 nM
  TGI: 7350 nM
[9]
  GI50: 3380 nM
  TGI: > 100000 nM
[10]
  GI50: 911 nM
  TGI: 4520 nM
[11]
  GI50: 2190 nM
  TGI: 13900 nM
[12]
  GI50: 5310 nM
  TGI: > 100000 nM
[13]
  GI50: 2360 nM
  TGI: > 100000 nM
[14]
  GI50: 840 nM
  TGI: 7000 nM
[15]
  GI50: 1930 nM
  TGI: 11600 nM
[16]
  GI50: 201 nM
  TGI: 1310 nM
[17]
  GI50: 310 nM
  TGI: 1660 nM
[18]
  GI50: 2420 nM
  TGI: > 69500 nM
[19]
  GI50: 333 nM
  TGI: 1210 nM
[20]
  GI50: 6580 nM
  TGI: > 100000 nM
[21]
  GI50: 3390 nM
  TGI: 38600 nM
[22]
  GI50: 2200 nM
  TGI: > 27400 nM
[23]
  GI50: 456 nM
  TGI: 2030 nM
[24]
  GI50: 511 nM
  TGI: > 100000 nM
[25]
  GI50: 955 nM
  TGI: > 23800 nM
[26]
  GI50: 2710 nM
  TGI: 19700 nM
[27]
  GI50: 358 nM
  TGI: 1570 nM
[28]
  GI50: 587 nM
  TGI: 2160 nM
[29]
  GI50: 1330 nM
  TGI: 5510 nM
[30]
  GI50: 1430 nM
  TGI: > 30200 nM
[31]
  GI50: 2180 nM
  TGI: 10300 nM
[32]
  GI50: 883 nM
  TGI: 10800 nM
[33]
  GI50: 671 nM
  TGI: 4230 nM
[34]
  GI50: 1580 nM
  TGI: 8000 nM
[35]
  GI50: 853 nM
  TGI: 4460 nM
[36]
  GI50: 1390 nM
  TGI: 11200 nM
[37]
  GI50: 1010 nM
  TGI: 6830 nM
[38]
  GI50: 2750 nM
  TGI: > 60400 nM
[39]
  GI50: 369 nM
  TGI: 2570 nM
[40]
  GI50: 232 nM
  TGI: 646 nM
[41]
  GI50: 399 nM
  TGI: 1900 nM
[42]
  GI50: 1890 nM
  TGI: 15600 nM
[43]
  GI50: 1580 nM
  TGI: 8640 nM
[44]
  GI50: 2970 nM
  TGI: 21500 nM
[45]
  GI50: 3220 nM
  TGI: 9870 nM
[46]
  GI50: 1140 nM
  TGI: 7220 nM
[47]
  GI50: 1160 nM
  TGI: 4000 nM
[48]
  GI50: 562 nM
  TGI: 2930 nM
[49]
  GI50: 1220 nM
  TGI: > 34500 nM
[50]
  GI50: 18100 nM
  TGI: > 100000 nM
[51]
  GI50: 477 nM
  TGI: 2400 nM
[52]
  GI50: 1750 nM
  TGI: 5000 nM
[53]
  GI50: 3240 nM
  TGI: 25700 nM
[54]
  GI50: 394 nM
  TGI: 2040 nM
[55]
  GI50: 790 nM
  TGI: 3500 nM
[56]
  GI50: 5620 nM
  TGI: 97900 nM
[57]
  GI50: 3780 nM
  TGI: 39400 nM
[58]
  GI50: 1560 nM
  TGI: 10700 nM
